Assay results: PMC9464622, “The collectin SP-A and its trimeric recombinant fragment protect alveolar epithelial cells from the cytotoxic and proinflammatory effects of human cathelicidin in vitro” (Frontiers in Immunology, 2022)

Columns and labels:
[1] = cited from earlier work
Description: The host appears to protect its own cells from LL-37 cytotoxicity by several mechanisms.

human endothelial cells = conditions: cited from earlier work
Description: (§1) The host appears to protect its own cells from LL-37 cytotoxicity by several mechanisms. […] In addition, the C1q globular head receptor (gC1qR, also known as p33) protects ...

[2] = Circular dichroism: secondary structure with and without bacterial lipid vesicles; type: physicochemical; conditions: far-UV CD, 25°C, 5 mM Tris-HCl, 150 mM NaCl pH 7.4; 100 µg/ml LL-37, 75 µg/ml SP-A or rfhSP-A; mixture compared with sum of individual spectra
Method: Circular dichroism (CD) spectra were obtained on a Jasco J-715 spectropolarimeter fitted with a 150 W xenon lamp ([38]). Quartz cells with a 0.1 cm optical path length were used, and the spectra were recorded in the far-UV region (190-260 nm) with a scanning speed of 50 nm/minute at 25°C. Four scans were accumulated and averaged for each spectrum. The acquired spectra were corrected by subtracting the appropriate blanks, subjected to noise reduction analysis, and presented as molar ellipticities (degrees cm2 dmol-1) assuming 110 Da as the average molecular mass per amino acid residue. At least three independent preparations of LL-37, SP-A, and rfhSP-A were measured. Spectra Manager Software (Jasco version 1.53) was used.
Two types of lipid vesicles were used: vesicles mimicking the bacterial cell wall (Re-LPS/BPL at a ratio of 08:02 by weight), and vesicles of bacterial inner membrane phospholipids (BPL). The final concentrations were 100 μg/ml (22.2 μM) for LL-37, 75 μg/ml (0.11 μM) for SP-A, and 75 μg/ml (1.3 μM) for rfhSP-A, in a final volume of 200 μl of 5 mM Tris-HCl, NaCl 150 mM, pH 7.4 buffer.
Vesicles mimicking the inner membrane of Gram-negative bacteria were prepared by mixing POPE, POPG, and CL at weight ratios of 67:23:10. […]

K. pneumoniae = assay: Bacterial membrane permeabilization, Sytox Green; type: cell-based, Klebsiella pneumoniae; conditions: 2.2 µM LL-37, 0.075 µM SP-A, 0.4 µM rfhSP-A, PBS pH 7.4, 37°C; three independent experiments
Method: The ability of LL-37, SP-A, rfhSP-A, and combinations thereof to permeabilize the outer and cytoplasmic bacterial membranes was studied in live bacteria by quantifying the internalization of the impermeant fluorescent Sytox Green, since its fluorescence increases when binding to bacterial DNA. For the measurement of Sytox Green influx, the probe (1 μM) was added to 1 ml of bacterial suspension (2x10^7 CFU/ml) in PBS and the sample was incubated for 15 min in darkness at room temperature as described in ([25]). Then, the fluorescence of the Sytox Green/bacterial suspension mixture was monitored for 4 hours in a FLUOstar Omega microplate reader (BMG LabTechnologies, Ortenberg, Germany) at excitation and emission wavelengths of 485 and 520 nm, respectively. PBS was used as a negative control, whereas ethanol (70%) was used as a positive control. Background fluorescence was measured in non-labeled bacteria.

influenza A virus = conditions: cited from earlier work
Description: as §1

[3] = test system: alveolar epithelial cells; conditions: cited from earlier work
Description: as §1

K. pneumoniae K2 [4] = assay: Transmission electron microscopy of bacteria; type: cell-based, Klebsiella pneumoniae; conditions: LL-37 55.5 µM, SP-A 0.3 µM, rfhSP-A 1.5 µM, 30 min 37°C PBS; TEM
Method: The effect of LL-37, SP-A, rfhSP-A, and combinations thereof on the ultrastructure of K. pneumoniae was visualized by means of transmission electron microscopy, as described in ([25]). […] Cells were spun down and PBS medium was removed. Cell pellets were then chemically fixed with 4% paraformaldehyde and 2.5% glutaraldehyde for 4 h at 4°C and washed three times with PBS. Next, bacteria were post-fixed with 1% osmium tetroxide for 1 h. Samples were then washed thrice with bi-distilled water and dehydrated using sequential exposure to acetone concentrations ranging from 30% to 100% for 15 min at room temperature. Next, infiltration and embedding were performed using Spurr’s resin. The samples were sectioned using an ultramicrotome with a diamond knife and were mounted on copper grids. Samples were examined on a JEOL JEM 1010 electron microscope (JEOL, Tokyo, Japan).

K. pneumoniae K2 [5] = assay: Bacterial killing assay, K. pneumoniae; conditions: 10^5 CFU/ml, PBS, 1 h 37°C; SP-A 0.11 µM, rfhSP-A 0.7 µM; increasing LL-37; CFU counting
Method: (§2) Klebsiella pneumoniae 52145 (serotype K2:O1), nontypeable Haemophilus influenzae strain 375 (NTHi), and P. aeruginosa (PAO1) are clinical isolates, as previously described ([40]–[42]). P. aeruginosa, and K. pneumoniae K2 were grown in Luria–Bertani (LB) broth at 37°C with continuous shaking to the exponential phase. Frozen stocks of NTHi strains were thawed and then grown on chocolate agar plates during 18 h at 37°C in a humidified 5% CO2 atmosphere. Then, NTHi were grown to the exponential phase on brain heart infusion broth (BHI) supplemented with 10 µg/ml hemin and 10 µg/ml β-nicotinamide adenine dinucleotide (β-NAD) (sBHI) with continuous shaking at 37°C in a humidified 5% CO^2 atmosphere. Exponential-phase bacteria were then harvested by centrifugation at 500 g for 10 min, resuspended in PBS, and adjusted to the desired final concentration, as described in ([24]).
(§3) The microbicidal activity of LL-37 in the presence of SP-A or rfhSP-A was evaluated by colony counts on plate assays ([24], [25]). […] Viable bacteria were enumerated by colony count and results were expressed as a percentage of relative survival in comparison to untreated bacteria.

P. aeruginosa = assay: Bacterial killing assay, P. aeruginosa; conditions: 10^5 CFU/ml, PBS, 1 h 37°C; SP-A 0.012 µM, rfhSP-A 0.075 µM; increasing LL-37
Method: as §2, §3

[6] = LPS vesicle aggregation assay (turbidity, DLS); type: biochemical, Salmonella enterica serotype Minnesota; conditions: Re-LPS/BPL 50 µg/ml, 75 nM SP-A, 1.1 µM LL-37, 0.43 µM rfhSP-A, 37°C
Method: Vesicles mimicking the inner membrane of Gram-negative bacteria were prepared by mixing POPE, POPG, and CL at weight ratios of 67:23:10. Alternatively, vesicles mimicking bacterial outer membrane were prepared by adding ReLPS to the POPE/POPG/CL mixture (BPL, bacterial phospholipids) at a weight ratio of 8:2, as previously reported ([25]). Multilamellar vesicles and large unilamellar vesicles of DPPC and surfactant-like vesicles composed of DPPC, POPG, and palmitic acid (PA) (at weight ratios of 23:10:1.6) were prepared as previously reported ([28], [33]–[35], [39]).
Turbidity measurements: The effects of SP-A, rfhSP-A, and calcium on the aggregation of LPS vesicles that mimic bacterial outer membranes were studied in the absence and presence of LL-37 by measuring the change in absorbance at 400 nm in a Beckman DU-800 spectrophotometer ([28], [39]). Briefly, LPS vesicles (50 μg/ml) were added to both the sample and the reference cuvettes in 5 mM Tris-HCl and 150 mM NaCl 0.1 mM EDTA buffer, pH 7.4. After 10 min equilibration at 37°C, either human SP-A, rfhSP-A, LL-37, or combinations thereof was added to the sample cuvette, and the change in optical density at 400 nm was monitored. Next, 2.5 mM Ca^2+ was added to both the sample and reference cuvettes, and the change in absorbance was monitored again. Aggregation of surfactant phospholipid vesicles was performed in the same way. […]

A549 cells = assay: LL-37-induced IL-8 secretion (ELISA); type: cell-based, human; conditions: A-438079 10 µM, 15 min pre-treatment; LL-37 15 µM, 24 h
Method: A549 cells were seeded to a density of 50,000 cells per well in a 96-well tissue culture plate for 18 h in RPMI 1640 medium supplemented with antibiotics, 2 mM L-glutamine, and 5% FBS.
Secreted IL-8 was quantified in supernatants of A549 cells by ELISA (R&D Systems) following the supplier instructions. Briefly, anti-human IL-8 was coated on a 96-well Nunc-Immuno Plate MaxiSorp Surface (Thermo Scientific, Waltham, MA) in PBS overnight. After blocking with PBS and 10% FBS, and extensive washing, samples and standards were incubated for 2 h at room temperature. IL-8 cytokine was detected with biotinylated detection antibody and streptavidin-HRP. The colorimetric reaction was developed with tetramethylbenzidine (BD Biosciences, San Diego, CA) and was stopped with 4 M sulfuric acid. The absorbance at 450 nm was read on an ELISA reader (RT-6100 plate reader, Rayto Life and Analytical Sciences, Shenzhen, China).

[7] = test system: nontypeable Haemophilus influenzae; assay: Bacterial killing assay, NTHi; conditions: 10^5 CFU/ml, PBS + 1% TSB, 1 h 37°C; SP-A 0.025 µM, rfhSP-A 0.15 µM; increasing LL-37
Method: as §2, §3

apolipoprotein A-I: HDL apolipoprotein A-I
effect on antimicrobial activity of LL-37 [1]: reduces the antimicrobial activity of LL-37 | effect on LL-37 cytotoxicity on human endothelial cells (human endothelial cells): reduces the cytotoxicity of LL-37 on human endothelial cells

SP-A: Human surfactant protein A isolated from bronchoalveolar lavage fluid of patients with alveolar proteinosis
CD spectrum / change in α-helical content [2]: marked decrease of negative ellipticity without any shift of the minimum at 207 nm | Sytox Green permeabilization of K. pneumoniae (K. pneumoniae): did not affect the fluorescence of the dye | antiviral activity against influenza A virus, LL-37 with SP-A (influenza A virus): additive antiviral activity against influenza A virus | effect on human β-defensin 3 cytotoxicity on alveolar epithelial cells [3]: reduced cytotoxicity on alveolar epithelial cells | effect on ultrastructure of K. pneumoniae (K. pneumoniae K2 [4]): did not cause any perturbation of the bacterial cell wall | effect on antibacterial activity of LL-37 against K. pneumoniae (K. pneumoniae K2 [5]): neither SP-A nor rfhSP-A modifies the antibacterial activity of LL-37 | effect on antibacterial activity of LL-37 against P. aeruginosa (P. aeruginosa): neither SP-A nor rfhSP-A modifies the antibacterial activity of LL-37 | LPS vesicle aggregation (scattered light), with calcium ([6]; 2.5 mM Ca2+, pH 7.4): greatly increased | LPS vesicle turbidity (400 nm), no calcium ([6]; pH 7.4, before Ca2+): did not affect sample turbidity | IL-8 release, A549, with P2X7 inhibitor (A549 cells): not observed in the presence of the P2X7 inhibitor | effect on antibacterial activity of LL-37 against NTHi [7]: neither SP-A nor rfhSP-A modifies the antibacterial activity of LL-37

Clc1cccc(-c2nnnn2Cc2cccnc2)c1Cl [A-438079, reference compound]
IL-8 release, A549, with P2X7 inhibitor (A549 cells): decreased LL-37-induced IL-8 secretion
